From patent US11207312B2, “Metallo-beta-lactamase inhibitors and methods of use thereof” (priority 2017, dated 2021) come the findings set out here.

The structures appear in SMILES notation.

For one data set, the target named is IMP-1 (Serratia marcescens, UniProt P52699). Put plainly: biochemical. Conditions: CCF2-FA fluorescence assay, 2 hours at 25° C.; read-out: IMP1 IC50. A digest of the protocol:
(§1)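 Metallo-β-lactamase activity read by fluorescence against CCF2-FA (1.25 μM final) in 100 mM KH2PO4 pH 7 with 0.005% Tween-20 and 10 μM ZnSO4; enzyme final at 1 pM NDM-1, 2 pM IMP-1 or 30 pM VIM-1. Inhibitor at 20 to 0.00063 μM, 2 h at 25° C; IC50 by 4-parameter fit.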

In a further data set the target is VIM-1 (Pseudomonas aeruginosa (strain ATCC 15692 / DSM 22644 / CIP 104116 / JCM 14847 / LMG 12228 / 1C / PRS 101 / PAO1), UniProt A0A0F7KYQ8). Description: biochemical. The settings on record: CCF2-FA fluorescence assay, 2 hours at 25° C.; read-out: VIM1 IC50. In a few lines:
as §1

For data set [1], the system named is P. aeruginosa MB9799 (efflux-, IMP-1 plasmid). The class given is cell-based, Pseudomonas aeruginosa. Conditions: efflux − (MB9799) strain; imipenem at 2 μg/mL; in the presence of a class A, C, D serine β-lactamase inhibitor closely related to relebactam. A digest of the protocol:
(§2)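 Isogenic P. aeruginosa PAO1 strains (efflux+ and multiple-efflux-pump-disrupted) carrying plasmid IMP-1, with inducible AmpC, tested by broth microdilution. Imipenem and/or ceftazidime fixed, usually at CLSI breakpoint, plus fixed class A/C β-lactamase inhibitor; titrated MBL inhibitor concentration restoring susceptibility recorded and compared between strains as efflux fold difference.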

The target in the next data set is VIM-2 (Escherichia coli, UniProt Q5U7L7). Put plainly: biochemical. Conditions: CCF2-FA fluorescence assay; read-out: VIM2 IC50.
The target in the next data set is NDM-1 (Klebsiella pneumoniae, UniProt C7C422). Description: biochemical. Type of data set: biochemical. The settings on record: CCF2-FA fluorescence assay, 2 hours at 25° C. In a few lines: as §1
NDM-1, sequence (C7C422 whole entry, looked up, species assumed): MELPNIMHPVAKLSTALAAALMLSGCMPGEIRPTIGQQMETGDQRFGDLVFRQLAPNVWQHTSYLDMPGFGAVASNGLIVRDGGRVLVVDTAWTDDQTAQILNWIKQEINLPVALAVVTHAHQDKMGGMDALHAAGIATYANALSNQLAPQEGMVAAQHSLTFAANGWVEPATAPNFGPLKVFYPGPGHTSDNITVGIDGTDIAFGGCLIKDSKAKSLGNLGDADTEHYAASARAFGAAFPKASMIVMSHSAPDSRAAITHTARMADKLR
For data set [2], the system named is P. aeruginosa MB9798 (efflux+, IMP-1 plasmid). The settings on record: for MB9798 MITC95 P. aeruginosa uM Efflux WT: efflux + (MB9798) strain, imipenem at 2 μg/mL, in the presence of a class A, C, D serine β-lactamase inhibitor closely related to relebactam; for Efflux ratio: fold difference between efflux+ (MB9798) and efflux− (MB9799) strains. In a few lines: as §2

For data set [3], the system named is Serratia marcescens expressing IMP-1 (CL5741). The class given is cell-based. Conditions: with imipenem 1 μg/ml; 95% inhibition of bacterial growth. In a few lines: (§3)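 Clinical MBL-producing strains grown overnight at 35° C, diluted 1:100 into CAMHB, then exposed to test compound with imipenem at 1 μg/ml for 22–24 h at 35° C. Absorbance read-out; MITC95 is the lowest compound concentration giving 95% growth inhibition with imipenem.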

Data set [4] concerns Klebsiella pneumoniae expressing VIM-1 (IHMA599644). The class given is cell-based. The settings on record: with imipenem 1 μg/ml; 95% inhibition of bacterial growth. In a few lines: as §3
The test system of data set [5] is Escherichia coli expressing NDM-1 (CLB30016). The class given is cell-based. Conditions: with imipenem 1 μg/ml; 95% inhibition of bacterial growth. In a few lines:
as §3

IMP-1, sequence (P52699 whole entry, looked up, species assumed): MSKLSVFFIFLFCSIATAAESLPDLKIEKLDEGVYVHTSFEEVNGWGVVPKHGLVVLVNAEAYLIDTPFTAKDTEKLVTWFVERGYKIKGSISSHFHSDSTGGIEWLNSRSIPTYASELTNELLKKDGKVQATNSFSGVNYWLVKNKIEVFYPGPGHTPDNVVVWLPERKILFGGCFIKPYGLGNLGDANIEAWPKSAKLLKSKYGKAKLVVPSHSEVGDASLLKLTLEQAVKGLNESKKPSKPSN

Consider `NCCNS(=O)(=O)C1CCN(c2ccc(S(=O)(=O)N[C@@H](CN)CO)c(S(N)(=O)=O)c2-c2nn[nH]n2)CC1` [Example 202, (S)-N1-(1-amino-3-hydroxypropan-2-yl)-4-(4-(N-(2-aminoethyl)sulfamoyl)piperidin-1-yl)-3-(2H-tetrazol-5-yl)benzene-1,2-disulfonamide], for which the IC50 at IMP-1 was determined as 0.58 nM; on VIM-1 it was 0.09 nM; on VIM-2, 1.6 nM; against NDM-1, 0.44 nM. Also, the “MB9799 MITC95 P. aeruginosa uM Efflux Mutant” value in [1] turned out to be 1.56 µM. In data set [2], the “MB9798 MITC95 P. aeruginosa uM Efflux WT” value came out at 1.56 µM. In addition, in data set [2], the Efflux ratio was 1.00. For the same molecule, the “CL5741 S. marcescens MITC95 IMP” value in [3] stood at 1.56 µM. For the same molecule, in data set [4], the “IHMA599644 K. pneumoniae MITC95 VIM” value turned out to be 1.56 µM. In addition, in [5], the “CLB30016 E. coli MITC95 NDM” value came to 0.78 µM.

With `N[C@H]1CCCN(c2ccc(S(=O)(=O)N[C@@H]3CCNC3)c(S(N)(=O)=O)c2-c2nn[nH]n2)C1=O` [Example 156, 4-((S)-3-amino-2-oxopiperidin-1-yl)-N1-((R)-pyrrolidin-3-yl)-3-(2H-tetrazol-5-yl)benzene-1,2-disulfonamide], the IC50 at IMP-1 worked out at 67.7 nM; at VIM-1 it was 2.14 nM; at VIM-2, 7.16 nM; against NDM-1, 4.64 nM. Besides, the “MB9799 MITC95 P. aeruginosa uM Efflux Mutant” value in data set [1] is 1.56 µM. For the same molecule, the “MB9798 MITC95 P. aeruginosa uM Efflux WT” value in data set [2] stood at 12.50 µM. Also, the Efflux ratio in data set [2] worked out at 8.00. Also, the “CL5741 S. marcescens MITC95 IMP” value in data set [3] turned out to be 1.56 µM. Further, in data set [4], the “IHMA599644 K. pneumoniae MITC95 VIM” value is 1.56 µM. Further, in [5], the “CLB30016 E. coli MITC95 NDM” value was 0.39 µM.

`NC[C@@H](O)CNS(=O)(=O)c1ccc(N[C@H]2CCC[C@H]2N)c(-c2nn[nH]n2)c1S(N)(=O)=O` [Example 178, N1-((R)-3-amino-2-hydroxypropyl)-4-(((1S,2R)-2-aminocyclopentyl)amino)-3-(2H-tetrazol-5-yl)benzene-1,2-disulfonamide]: the IC50 is 101 nM on IMP-1, 80.1 nM on VIM-1, 132 nM at VIM-2 and 29 nM against NDM-1. In addition, the “MB9799 MITC95 P. aeruginosa uM Efflux Mutant” value in data set [1] turned out to be 6.25 µM. In data set [2], the “MB9798 MITC95 P. aeruginosa uM Efflux WT” value came out at 25.00 µM. Besides, the Efflux ratio in data set [2] stood at 4.00. For the same molecule, in [3], the “CL5741 S. marcescens MITC95 IMP” value was 6.25 µM. Moreover, the “IHMA599644 K. pneumoniae MITC95 VIM” value in [4] turned out to be 6.25 µM. For the same molecule, in [5], the “CLB30016 E. coli MITC95 NDM” value was 1.56 µM.

As to `NC[C@@H](O)CNS(=O)(=O)c1ccc(N2CC[C@H](CN)[C@@H](O)C2)c(-c2nn[nH]n2)c1S(N)(=O)=O` [Example 10], the IC50 on IMP-1 was determined as 28.9 nM; on VIM-1, 0.43 nM; on VIM-2, 27 nM; on NDM-1 it was 16.4 nM. In data set [1], the “MB9799 MITC95 P. aeruginosa uM Efflux Mutant” value was found to be 0.78 µM. The “MB9798 MITC95 P. aeruginosa uM Efflux WT” value in data set [2] came to 3.13 µM. Besides, the Efflux ratio in [2] came to 4.00. Further, the “CL5741 S. marcescens MITC95 IMP” value in [3] amounted to 0.39 µM. Further, the “IHMA599644 K. pneumoniae MITC95 VIM” value in data set [4] turned out to be 1.56 µM. Moreover, the “CLB30016 E. coli MITC95 NDM” value in data set [5] was determined as 0.39 µM.

Turning to `NC[C@@H](O)CNS(=O)(=O)c1ccc(N2CCC(C(N)CO)CC2)c(-c2nn[nH]n2)c1S(N)(=O)=O` (mixture of isomers) [Example 182, 4-(4-(1-Amino-2-hydroxyethyl)piperidin-1-yl)-N1-((R)-3-amino-2-hydroxypropyl)-3-(2H-tetrazol-5-yl)benzene-1,2-disulfonamide], the IC50 on IMP-1 was found to be 4 nM; at VIM-1, 0.27 nM; on VIM-2, 3.82 nM; on NDM-1 it was 3.77 nM. The “MB9799 MITC95 P. aeruginosa uM Efflux Mutant” value in data set [1] came to 0.78 µM. In addition, the “MB9798 MITC95 P. aeruginosa uM Efflux WT” value in data set [2] amounted to 0.78 µM. Moreover, the Efflux ratio in [2] is reported as 1.00. In addition, the “CL5741 S. marcescens MITC95 IMP” value in data set [3] stood at 0.78 µM. In addition, the “IHMA599644 K. pneumoniae MITC95 VIM” value in data set [4] was determined as 1.56 µM. Also, the “CLB30016 E. coli MITC95 NDM” value in data set [5] is 0.39 µM.

In the case of `NS(=O)(=O)c1c(S(=O)(=O)N[C@@H]2CCNC2)ccc(N2CCNCC2)c1-c1nnn[nH]1` [Example 79, 4-piperazin-1-yl-N1-[(3R)-pyrrolidin-3-yl]-3-(1H-tetrazol-5-yl)benzene-1,2-disulfonamide], the concentration for half-maximal inhibition (IC50) on IMP-1 was found to be 26.6 nM; at VIM-1, 8.6 nM; on VIM-2, 36.4 nM; on NDM-1, 9.35 nM. In addition, the “MB9799 MITC95 P. aeruginosa uM Efflux Mutant” value in [1] stood at 1.56 µM. Besides, the “MB9798 MITC95 P. aeruginosa uM Efflux WT” value in [2] is 3.13 µM. Moreover, the Efflux ratio in data set [2] came to 2.00. In addition, the “CL5741 S. marcescens MITC95 IMP” value in [3] worked out at 0.78 µM. Besides, the “IHMA599644 K. pneumoniae MITC95 VIM” value in data set [4] worked out at 3.13 µM. Further, in [5], the “CLB30016 E. coli MITC95 NDM” value stood at 0.39 µM.

With `NCC1CCN(c2ccc(S(=O)(=O)C[C@H](O)CN)c(S(N)(=O)=O)c2-c2nn[nH]n2)CC1` [Example 128, (R)-6-((3-amino-2-hydroxypropyl)sulfonyl)-3-(4-(aminomethyl)piperidin-1-yl)-2-(2H-tetrazol-5-yl)benzenesulfonamide], the IC50 on IMP-1 was 3.65 nM; at VIM-1, 0.94 nM; on VIM-2, 13.3 nM; against NDM-1 it was 8.71 nM. For the same molecule, the “MB9799 MITC95 P. aeruginosa uM Efflux Mutant” value in [1] was 0.39 µM. Moreover, the “MB9798 MITC95 P. aeruginosa uM Efflux WT” value in data set [2] was 0.78 µM. In data set [2], the Efflux ratio was 2.00. Also, in data set [3], the “CL5741 S. marcescens MITC95 IMP” value worked out at 0.78 µM. Moreover, in [4], the “IHMA599644 K. pneumoniae MITC95 VIM” value was 0.78 µM. Also, the “CLB30016 E. coli MITC95 NDM” value in data set [5] is 0.39 µM.

On to `NS(=O)(=O)c1c(S(=O)(=O)N[C@@H]2CCNC2)ccc(N2CCCC(=O)C2=O)c1-c1nn[nH]n1` [Example 151, (R)-4-(2,3-dioxopiperidin-1-yl)-N1-(pyrrolidin-3-yl)-3-(2H-tetrazol-5-yl) benzene-1,2-disulfonamide], for which the IC50 on IMP-1 worked out at 6.7 nM; at VIM-1, 1.15 nM; on VIM-2, 5.92 nM; against NDM-1, 0.53 nM. The “MB9799 MITC95 P. aeruginosa uM Efflux Mutant” value in [1] is 3.13 µM. For the same molecule, the “MB9798 MITC95 P. aeruginosa uM Efflux WT” value in [2] is 12.50 µM. The Efflux ratio in data set [2] is reported as 4.00. Also, in [3], the “CL5741 S. marcescens MITC95 IMP” value is 1.56 µM. For the same molecule, in [4], the “IHMA599644 K. pneumoniae MITC95 VIM” value turned out to be 6.25 µM. The “CLB30016 E. coli MITC95 NDM” value in data set [5] worked out at 0.39 µM.

Turning to `NCCNS(=O)(=O)c1ccc(N2CCC(O)(CN)CC2)c(-c2nn[nH]n2)c1S(N)(=O)=O` [Example 17], the IC50 on IMP-1 worked out at 26.9 nM; on VIM-1, 15.1 nM; at VIM-2, 64.6 nM; at NDM-1 it was 17 nM. Further, the “MB9799 MITC95 P. aeruginosa uM Efflux Mutant” value in data set [1] is 0.78 µM. The “MB9798 MITC95 P. aeruginosa uM Efflux WT” value in data set [2] amounted to 1.56 µM. Moreover, in data set [2], the Efflux ratio is listed as 2.00. Further, the “CL5741 S. marcescens MITC95 IMP” value in data set [3] was 0.78 µM. Further, the “IHMA599644 K. pneumoniae MITC95 VIM” value in [4] was determined as 1.56 µM. In addition, the “CLB30016 E. coli MITC95 NDM” value in [5] turned out to be 0.78 µM.
